Reference: patent US5800820A, “Methods and compositions for treatment of angiogenic diseases” (Repligen Corporation, priority 1995, dated 1998)
Values joined by “and” are separate entries in the source; they are usually repeats but may differ in a detail not shown here. Equal entries are not always repeated.

How the values were obtained:
Implanted tumors = experiment: Anti-tumor activity of rPF4 combined with indomethacin; type: in vivo, mice; conditions: s.c. tumors, indomethacin 50 μg slow release pellet; FIG. 10
Protocol: Four groups of mice were used in this experiment. In two groups of mice, slow release indomethacin pellets (50 μg) were implanted surgically under the skin of the left flank. The other two groups were not treated with indomethacin. Tumors were implanted subcutaneously in all four groups in the right flank.

[1] = system: hind footpad (murine dermis); experiment: Footpad assay (dermal inflammation); conditions: systemic indomethacin
Protocol: (§1) Footpad Assay. 0.05 ml of PBS containing a test substance was injected intradermally into the right hind footpad of each mouse. An identical amount of diluent, not containing the test substance, was injected into the left hind footpad. At various time points, footpad thicknesses were measured with a spring loaded engineer's micrometer (Fowler Co., Biggswald, England).
(§2) At various time points, mice were sacrificed and footpad tissue was prepared for light microscopy. This tissue was used to quantify infiltrating cell types. Biopsy specimens were fixed in 10% buffered formalin for at least 48 hours and then prepared using standard techniques of paraffin embedding and staining with hematoxylin and eosin. Using an ocular grid, four cellular areas of dermis in each specimen were examined in a coded fashion at 1000× magnification and inflammatory cells were quantified. Differences between groups were assessed by Student's t test or analysis of variance, where appropriate.
(§3) For each mouse, 0.05 mg, slow release indomethacin pellets (Innovative Research, Toledo, Ohio) were implanted subcutaneously under light ether anesthesia 48 hours prior to an experiment. These pellets continuously release their contents over 14 days.

[2] = system: heparin inhibition of Factor Xa; experiment: Factor Xa assay of heparin binding (prevention of heparin inhibition); type: biochemical
Description: The lysine rich region of PF4 (residues 61-66) is also the domain associated with the binding of heparin by PF4. Heparin is known to play a role in modulating angiogenesis, which can also be affected by protamine, another well characterized heparin-binding protein. To assess the ability of PF4-based synthetic peptides to bind heparin, we assayed the activity of coagulation-cascade enzymes which are inhibited by heparin. The Factor Xa assay used here has previously been described in Denton et al. (1983) Biochem. J. 209:455-460.

[3] = system: heparin inhibition of thrombin; experiment: Thrombin assay of heparin binding (prevention of heparin inhibition); type: biochemical; conditions: C-13: even at ten times an effective level of rPF4
[4] = system: hind footpad (murine dermis); conditions: mouse, in vivo
Protocol: as §1, §2, §3

angiogenesis on the CAM = experiment: Chicken chorioallantoic membrane (CAM) assay; type: in vivo; conditions: for biological activity in the CAM assay: Table 4, compared with rPF4-211
Protocol: Chicken Chorioallantoic Membrane (CAM) Assay. Fertile eggs were incubated in a stationary position for 3 days at 37° C. and 70-80% relative humidity. During this time, the embryo rose to the upper surface of the egg contents. At the beginning of the 4th day, the eggs were cracked without inversion and carefully deposited into sterile plastic petri dishes such that the embryo remained on the upper surface. The shell-free eggs were incubated for an additional 72 hours at 37° C., under an atmosphere containing 2.5-3.5% CO2 after which the growing embryos developed a recognizable CAM. Discs, made by mixing test samples with 1% (w/v) methylcellulose, were dried and placed on the CAM between major veins and approximately 0.5 cm from the embryo. Following another 48 hour incubation at 37° C. (2.5-3.5% CO2), the samples were scored for their ability to inhibit angiogenesis. Inhibition appears as an avascular zone surrounding the implant and can often include elbows formed by veins avoiding the disc and a reduced number of capillaries in the region of the implant.

[5] = system: Human umbilical vein endothelial cells (HUVEC); experiment: Endothelial cell proliferation assay; type: cell-based; conditions: for biological activity in the HUVEC assay: Table 4, compared with rPF4-211; for inhibition of human umbilical vein endothelial cell proliferation: FIG. 6
Protocol: Endothelial Cell Proliferation Assay. Human umbilical vein endothelial cells (HUVEC) were cultured in Medium 199 (Gibco) containing 10% (v/v) fetal bovine serum (FBS), 150 mcg/ml endothelial cell growth supplement (ECGS) and 5 units/ml heparin at 37° C. and 4-5% CO2. Every 3-4 days, the cultures were harvested by trypsin treatment, diluted, replated, and grown to confluence. Prior to the start of an experiment, the cells were centrifuged and resuspended in heparin-free media and incubated with the test substance (PF4) for 3 days under standard culture conditions. At the end of the incubation period, the cells were removed by trypsin treatment and counted with a Particle Data Elzone 180 Cell Counter. Statistical significance between means was determined by a standard Student t-test for unpaired data. […]

[6] = system: B16-F10 melanoma tumor line; experiment: In vivo tumor growth assay, injection into the nascent tumor; set-up: species or system C57BL/6J female mice
Protocol: In vivo Tumor Growth Assay. Normal C57BL/6J female mice (6-8 weeks old) were inoculated subcutaneously with 5×10^5 log phase cells of a B16-F10 melanoma tumor line. This protocol led to progressive tumor growth resulting in large (300 mm^3) necrotic tumors after approximately 10 days, followed by death of untreated animals usually within three weeks of tumor inoculation.
To test the efficacy of rPF4 in preventing in vivo tumor growth and angiogenesis, tumor bearing animals were injected daily, directly into the nascent tumor, with either rPF4 or with buffer lacking rPF4, beginning one day after tumor inoculation. Tumor volume was measured at regular intervals with digital calipers by laboratory personnel uninformed of the specific treatment received by each subject animal.
The efficacy of rPF4-211 or rPF4-241 in preventing tumor growth and angiogenesis was tested. The inhibition of in vivo tumor growth was assayed after injection of either rPF4-211 (in 20 mM NaOAc, pH 4.0) or rPF4-241 (in 50 mM sodium phosphate, pH 6.5, 50 mM NaCl) directly into the nascent tumor, as described in the materials and methods section above.

[7] = system: B16 murine melanoma cell line; experiment: Systemic rPF4 against B16 melanoma lung metastases; type: in vivo; conditions: for # of Metastases (#/Mouse) / Lung Wt.: day 21, average of six mice
Protocol: Cells of a B16 murine melanoma cell line were injected intravenously into a tail vein of a mouse. Thirty seconds later, rPF4 (in saline or acetate buffer) was injected into the same mouse via a different tail vein. After 21 days, the tumor burden of the test and control animals was measured by counting, optically, lung metastases, and by weighing the lungs of the mice. Referring to Table 6, PF4 produced a dose-dependent effect, as measured by both parameters.

tumor cell growth = experiment: Tumor cell growth in vitro; type: cell-based
Kaposi's sarcoma = experiment: Cancers that contain malignant endothelial cells; conditions: such as Kaposi's sarcoma
[8] = system: Human umbilical vein endothelial cells (HUVEC); experiment: Endothelial cell proliferation assay; type: cell-based; conditions: rPF4 50 mcg/ml, 5 u/ml heparin
[9] = heparin-deficient medium, FIG. 3
[10] = 0.375 mg rPF4 i.v. (19.7 mg/kg)

Molecule: COc1ccc2c(c1)c(CC(=O)O)c(C)n2C(=O)c1ccc(Cl)cc1 [indomethacin]
- growth of implanted tumors (Implanted tumors): grew rapidly after day 6
- effect on the inflammatory cell infiltrate induced by rPF4 [1]: partially abrogated
- effect on the rPF4 pro-inflammatory response ([1]; FIG. 8): significantly blunts

Molecule: C-41: 41 amino acid C-terminal peptide of PF4 (IKAGPHCPTAQLIATLKNGRKICLDLQAPLYKKIIKKLLES; Platelet factor 4; UniProt P02776 61-101, looked up, fragment)
- prevention of heparin inhibition of Factor Xa [2]: prevented heparin inhibition less effectively
- prevention of heparin inhibition of thrombin [3]: prevented heparin inhibition less effectively
- Pro-inflammatory response Infiltrating [4]: ++
- Pro-inflammatory response Swelling [4]: ++
- composition of the inflammatory infiltrate [4]: composed of neutrophils and to a lesser degree mononuclear cells
- inflammatory response [4]: pro-inflammatory

Molecule: cytochrome c [reference compound]
- inflammatory response [4]: failed to elicit a significant inflammatory response

Molecule: polylysine [reference compound]
- inhibition of angiogenesis on the CAM (angiogenesis on the CAM; 6.5 nmol dosages): not to cause inhibition

Molecule: protamine [reference compound]
- prevention of heparin inhibition of Factor Xa [2]: approximately equimolar concentrations
- prevention of heparin inhibition of thrombin [3]: approximately equimolar concentrations

Molecule: rPF4-231: rPF4 mutant that terminates at amino acid number 60: [PF4 AA 1-57] P L Y (EAEEDGDLQCLCVKTTSQVRPRHITSLEVIKAGPHCPTAQLIATLKNGRKICLDLQAPLY; Platelet factor 4 recombinant; UniProt P02776 32-91, looked up, fragment)
- biological activity in the CAM assay (angiogenesis on the CAM): does not exhibit significant biological activity
- biological activity in the HUVEC assay [5]: does not exhibit significant biological activity

Molecule: rPF4: recombinant platelet factor 4 with the wild type sequence, 70 residues; residues 58-70 P L Y K K I I K K L L E S
- inhibition of angiogenesis on the CAM (angiogenesis on the CAM; discs containing several concentrations, FIG. 2): inhibited angiogenesis
- prevention of heparin inhibition of Factor Xa [2]: approximately equimolar concentrations
- prevention of heparin inhibition of thrombin [3]: approximately equimolar concentrations
- inhibition of human umbilical vein endothelial cell proliferation [5]: effective at inhibiting the proliferation
- concentration at which inhibition of endothelial cell growth was complete [5, 9]: 3.2 µM
- lowest concentration with significant inhibition of endothelial cell growth [5, 9]: 1.3 µM
- endothelial cell growth (cell count) ([5]; rPF4 50 mcg/ml, no heparin, three day incubation): 6.0 ± 0.6
- % Inhibition ([5]; rPF4 50 mcg/ml, no heparin, based on seeding of 8 × 10^4 cells/well): 100% and ~ 100%
- time until inhibition of tumor growth was apparent ([6]; after the initial inoculation of rPF4): apparent within three days
- tumor growth on continued treatment ([6]; daily injection into the tumor): completely suppressed tumor growth
- tumor status ([6]; within seven days of tumor inoculation, daily injection into the tumor, FIG. 7): essentially tumor-free
- # of Metastases (#/Mouse) [7, 10]: 112.2 #/Mouse
- Lung Wt. [7, 10]: 525 mg
- # of Metastases (#/Mouse) ([7]; 0.75 mg rPF4 i.v. (40.1 mg/kg)): 66.0 #/Mouse
- Lung Wt. ([7]; 0.75 mg rPF4 i.v. (40.1 mg/kg)): 404 mg
- # of Metastases (#/Mouse) ([7]; 1.5 mg rPF4 i.v. (84.2 mg/kg)): 54.7 #/Mouse
- Lung Wt. ([7]; 1.5 mg rPF4 i.v. (84.2 mg/kg)): 357 mg
- toxicity or other adverse effects ([7]; systemic dosages in excess of 5000 μg per kg of body weight): no observable toxicity or other adverse effects
- direct inhibition of tumor cell growth in vitro (tumor cell growth): did not directly inhibit tumor cell growth in vitro
- effect on cancers that contain malignant endothelial cells (Kaposi's sarcoma): inhibitory
- growth of implanted tumors (Implanted tumors): grew very little, if at all
- Pro-inflammatory response Infiltrating [4]: ++
- Pro-inflammatory response Swelling [4]: ++
- composition of the inflammatory infiltrate [4]: composed of neutrophils and to a lesser degree mononuclear cells
- onset of acute inflammation [4]: within two hours
- endothelial cell growth (cell count) ([8]; three day incubation): 14.0 ± 0.4
- % Inhibition ([8]; based on seeding of 8 × 10^4 cells/well): 45%

B1: rPF4-241: PF4 mutant, four lysine residues near the C-terminus changed to two Gln-Glu couplets: P L Y Q E I I Q E L L E S (protein, UniProt P02776 32-101, looked up, variant K61Q K62E K65Q K66E)
Platelet factor 4: EAEEDGDLQCLCVKTTSQVRPRHITSLEVIKAGPHCPTAQLIATLKNGRKICLDLQAPLYQEIIQELLES
modifications: Platelet factor 4 recombinant
notes: PF4 mutant, four lysine residues near the C-terminus changed to two Gln-Glu couplets: P L Y Q E I I Q E L L E S
- inhibition of angiogenesis in the CAM system (angiogenesis on the CAM; 1.25 nmol/disc, lowest concentration tested, FIG. 5): extensively inhibited angiogenesis
- reversal of the inhibitory effect by heparin (angiogenesis on the CAM; CAM): not reversed by heparin
- biological activity in the CAM assay (angiogenesis on the CAM): enhanced activity
- inhibition of angiogenesis compared with native rPF4 (angiogenesis on the CAM; equal concentrations, larger avascular zones): even more effective
- heparin-binding activity ([2]; Factor Xa inhibition assay): lacked heparin-binding activity
- inhibition of human umbilical vein endothelial cell proliferation [5]: effective at inhibiting the proliferation
- biological activity in the HUVEC assay [5]: enhanced activity
- tumor growth on continued treatment ([6]; daily injection into the tumor): same effect was observed
- Pro-inflammatory response Infiltrating [4]: +
- Pro-inflammatory response Swelling [4]: +

B2: rPF4-302: rPF4 mutant, C-terminal sequence P L Y Q Q I I Q Q L L E S (protein, UniProt P02776 32-101, looked up, variant K61Q K62Q K65Q K66Q)
Platelet factor 4: EAEEDGDLQCLCVKTTSQVRPRHITSLEVIKAGPHCPTAQLIATLKNGRKICLDLQAPLYQQIIQQLLES
modifications: Platelet factor 4 recombinant
- biological activity in the CAM assay (angiogenesis on the CAM): does not exhibit significant activity
- biological activity in the HUVEC assay [5]: does not exhibit significant activity

B3: rPF4-307: rPF4 mutant, C-terminal sequence P L Y Q I E I Q L E L E S (protein, UniProt P02776 32-101, looked up, variant K61Q K62I I63E I64I K65Q K66L L67E L68L)
Platelet factor 4: EAEEDGDLQCLCVKTTSQVRPRHITSLEVIKAGPHCPTAQLIATLKNGRKICLDLQAPLYQIEIQLELES
modifications: Platelet factor 4 recombinant
- biological activity in the CAM assay (angiogenesis on the CAM): enhanced activity
- biological activity in the HUVEC assay [5]: enhanced activity
